Measurements: patent US12390437B2, “Itaconic acid derivatives and uses thereof intreating an inflammatory disease or a disease associated with an undesirable immune response” (Sitryx Therapeutics Limited, priority 2019, dated 2025)

Legend:
[1] = test system: IL-6 cytokine output from THP-1s; assay: THP-1 AlphaLISA IL-6 cytokine assay; type: cell-based, human; conditions: Homo sapiens; PMA-differentiated THP-1 cells, LPS 24 hr then Nigericin 1 hour
Procedure: Measuring Inhibitory Effects on IL-1β and IL-6 Cytokine Output from THP-1s
The cytokine inhibition profiles of compounds of formula (IW-1) were determined in a differentiated THP-1 cell assay. All assays were performed in RPMI-1640 growth medium (Gibco), supplemented with 10% fetal bovine serum (FBS; Gibco), 1% penicillin-streptomycin and 1% sodium pyruvate unless specified otherwise. The IL-1β and IL-6 cytokine inhibition assays were each run in a background of differentiated THP-1 cells as described below. All reagents described were from Sigma-Aldrich unless specified otherwise. Compounds were prepared as 10 mM DMSO stocks.
THP-1 cells were expanded as a suspension up to 80% confluence in appropriate growth medium. Cells were harvested, suspended, and treated with an appropriate concentration of phorbol 12-myristate 13-acetate (PMA) over a 72 hr period (37° C./5% CO2).
Following 72 hrs of THP-1 cell incubation, cellular medium was removed and replaced with fresh growth media containing 1% of FBS. Working concentrations of compounds were prepared separately in 10% FBS treated growth medium and pre-incubated with the cells for 30 minutes (37° C./5% CO2). Following the 30 minute compound pre-incubation, THP-1s were treated with an appropriate concentration of LPS and the THP-1s were subsequently incubated for a 24 hr period (37° C./5% CO2). An appropriate final concentration of Nigericin was then dispensed into the THP-1 plates and incubated for 1 hour (37° C./5% CO2) before THP-1 supernatants were harvested and collected in separate polypropylene 96-well holding plates.
Reagents from each of the IL-1β and IL-6 commercial kits (Perkin Elmer) were prepared and run according to the manufacturer's instructions. Subsequently, fluorescence signal detection in a microplate reader was measured (EnVision® Multilabel Reader, Perkin Elmer).
Percentage inhibition was calculated per cytokine by normalising the sample data to the high and low controls used within each plate (+/−LPS respectively). Percentage inhibition was then plotted against compound concentration and the 50% inhibitory concentration (IC50) was determined from the resultant concentration-response curve.

[2] = test system: IL-1β cytokine output from THP-1s; assay: THP-1 AlphaLISA IL-1β cytokine assay; type: cell-based, human; conditions: Homo sapiens, THP-1, PMA-differentiated THP-1 cells, LPS 24 hr then Nigericin 1 hour; read-out: IL-1β (IC50)
Procedure, shortened: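 AlphaLISA read-out of cytokine released into supernatants of differentiated THP-1 cells. Cells were PMA-treated for 72 h, exposed to compound for 30 min, stimulated with LPS for 24 h, then given nigericin for 1 h before harvest. IC50 values come from normalised concentration-response curves.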

NRF2 = NRF2 +/-GSH activation assay (DiscoverX PathHunter NRF2 translocation kit, U2OS cells); type: cell-based; conditions: Homo sapiens, GSH condition not stated in Table 5; for Emax: U2OS, normalised to dimethyl fumarate 'High' control, read-out: NRF2 activation Emax; for EC50: U2OS PathHunter cells, 6 hours, read-out: NRF2 activation EC50
Procedure: Measuring Compound Activation Effects on the Anti-Inflammatory Transcription Factor NRF2 in DiscoverX PathHunter NRF2 Translocation Kit
Potency and efficacy of compounds of formula (IW-1) against the target of interest to activate NRF2 (nuclear factor erythroid 2-related factor 2) were determined using the PathHunter NRF2 translocation kit (DiscoverX). The NRF2 translocation assay was run using an engineered recombinant cell line, utilising enzyme fragment complementation to determine activation of the Keap1-NRF2 protein complex and subsequent translocation of NRF2 into the nucleus. Enzyme activity was quantified using a chemiluminescent substrate consumed following the formation of a functional enzyme upon PK-tagged NRF2 translocation into the nucleus.
The assay was run under either +/−GSH (glutathione) conditions to determine the attenuating activities of GSH against target compounds.
Additionally, a defined concentration of dimethyl fumarate was used as the ‘High’ control to normalise test compound activation responses to.
U2OS PathHunter eXpress cells were thawed from frozen prior to plating. Following plating, U2OS cells were incubated for 24 hrs (37° C./5% CO2) in commercial kit provided cell medium.
Following 24 hrs of U2OS incubation, cells were directly treated with an appropriate final concentration of compound, for −GSH conditions, or for +GSH conditions, an intermediate plate containing 6× working concentrations of compound stocks was prepared in a 6 mM working concentration of GSH solution (solubilised in sterile PBS). Following a 30 minute compound-GSH pre-incubation (37° C./5% CO2) for +GSH treatment, plated U2OS cells were incubated with an appropriate final concentration of compound and GSH.
Following compound (+/−GSH) treatment, the U2OS plates were incubated for a further 6 hours (37° C./5% CO2) before detection reagent from the PathHunter NRF2 commercial kit was prepared and added to test plates according to the manufacturer's instructions. Subsequently, the luminescence signal detection in a microplate reader was measured (PHERAstar®, BMG Labtech).
Percentage activation was calculated by normalising the sample data to the high and low controls used within each plate (+/−DMF). Percentage activation/response was then plotted against compound concentration and the 50% activation concentration (EC50) was determined from the plotted concentration-response curve.

Compound | IC50 [1] [µM] | IC50 [2] [µM] | Emax (NRF2) [%] | EC50 (NRF2) [µM]
C=C(CC(=O)OCCCCCCCC)C(=O)OCCC(=O)N1CCOCC1 [Example 108, 1-(3-morpholino-3-oxopropyl) 4-octyl 2-methylenesuccinate] | 3.1 | 11.1 | – | –
C=C(CC(=O)O[C@H](C)CCCCCC)C(=O)OC1CS(=O)(=O)C1 [Example 57, (R)-1-(1,1-dioxidothietan-3-yl) 4-(octan-2-yl) 2-methylenesuccinate] | 2.6 | 4.4 | – | –
C=C(CC(=O)OC1CCCCC1)C(=O)OC1CS(=O)(=O)C1 [Example 60, 4-cyclohexyl 1-(1,1-dioxidothietan-3-yl) 2-methylenesuccinate] | 1.4 | 1.9 | – | –
C=C(CC(=O)OCC1CCC(F)(F)CC1)C(=O)OCC(=O)O [Example 113, 2-((4-((4,4-difluorocyclohexyl)methoxy)-2-methylene-4-oxobutanoyl)oxy)acetic Acid] | 48.5 | 100 | – | –
C=C(CC(=O)OCCOCCOCC)C(=O)OCCS(C)(=O)=O [Example 36, 4-(2-(2-ethoxyethoxy)ethyl) 1-(2-(methylsulfonyl)ethyl) 2-methylenesuccinate] | 8.9 | 20.5 | – | –
C=C(CC(=O)O[C@H](C)CCCCCC)C(=O)OC1CN(C(C)=O)C1 [Example 58, (R)-1-(1-acetylazetidin-3-yl) 4-(octan-2-yl) 2-methylenesuccinate] | 3.8 | 6.5 | – | –
C=C(CC(=O)OCCCCCCCC)C(=O)OC(C)OC(C)=O (stereo not drawn) [Example 46, 1-(1-acetoxyethyl) 4-octyl 2-methylenesuccinate] | 3 | 6.7 | – | –
C=C(CC(=O)O[C@H](C)CCCCCC)C(=O)OC1CCOCC1 [Example 73, (R)-4-(octan-2-yl) 1-(tetrahydro-2H-pyran-4-yl) 2-methylenesuccinate] | 23.5 | 24.1 | – | –
C=C(CC(=O)OCCCCCCCC)C(=O)OCC(=O)OC(C)(C)C [Example 48, 1-(2-(tert-butoxy)-2-oxoethyl) 4-octyl 2-methylenesuccinate] | 5.1 | 10.1 | – | –
C=C(C(=O)O[C@H]1CCOC1)C(C)C(=O)OCCCCCCCC (stereo partly drawn) [Example 139, 1-octyl 4-((S)-tetrahydrofuran-3-yl) 2-methyl-3-methylenesuccinate] | 15.1 | 21.7 | – | –
C=C(CC(=O)OCCCCCCCC)C(=O)OCC(C)OC (stereo not drawn) [Example 33, 1-(2-methoxypropyl) 4-octyl 2-methylenesuccinate] | 11.7 | 14.1 | – | –
C=C(C(=O)OCCS(C)(=O)=O)C(C)C(=O)OCCCCCCCC (stereo not drawn) [Example 138, 4-(2-(methylsulfonyl)ethyl) 1-octyl 2-methyl-3-methylenesuccinate] | 5.2 | 6.8 | – | –
C=C(CC(=O)OCCCCCCCC)C(=O)OCCN1CCOCC1 [Example 35, 1-(2-morpholinoethyl) 4-octyl 2-methylenesuccinate] | 3.7 | 6.7 | – | –
C=C(CC(=O)OC1CCCCCCC1)C(=O)OCCN1CCCC1=O [Example 71, 4-cyclooctyl 1-(2-(2-oxopyrrolidin-1-yl)ethyl) 2-methylenesuccinate] | 9.6 | 8.7 | – | –
C=C(CC(=O)OC1CCCCC1)C(=O)OC(C)C(=O)O (stereo not drawn) [Example 111, 2-((4-(cyclohexyloxy)-2-methylene-4-oxobutanoyl)oxy)propanoic acid] | 70.9 | 100 | – | –
C=C(CC(=O)OCCCCCCCC)C(=O)OC1(C)COC1 [Example 68, 1-(3-methyloxetan-3-yl) 4-octyl 2-methylenesuccinate] | 9.1 | 24 | – | –
C=C(CC(=O)OCCCCCCCC)C(=O)O[C@H]1CCOC1 [Example 23, (S)-4-octyl 1-(tetrahydrofuran-3-yl) 2-methylenesuccinate] | 4.5 | 8.2 | – | –
C=C(CC(=O)OC)C(=O)OC1COC1 [Example 15, 4-methyl 1-(oxetan-3-yl) 2-methylenesuccinate] | 8.9 | 15.4 | – | –
C=C(CC(=O)OC1CCCCCCC1)C(=O)OC1CN(C(C)=O)C1 [Example 63, 1-(1-acetylazetidin-3-yl) 4-cyclooctyl 2-methylenesuccinate] | 2.5 | 1.3 | – | –
C=C(CC(=O)OC1CCCCCCC1)C(=O)OCCS(C)(=O)=O [Example 25, 4-cyclooctyl 1-(2-(methylsulfonyl)ethyl) 2-methylenesuccinate] | 1.9 | 1.9 | – | –
C=C(CC(=O)OCCS(=O)(=O)c1ccc(C)cc1)C(=O)OCC(=O)O [Example 97, 2-((2-methylene-4-oxo-4-(2-tosylethoxy)butanoyl)oxy)acetic acid] | 30.3 | 29.3 | – | –
C=C(CC(=O)OC1CCCCCCC1)C(=O)OC1(CC(=O)OCC)COC1 [Example 137, 4-cyclooctyl 1-(3-(2-ethoxy-2-oxoethyl)oxetan-3-yl) 2-methylenesuccinate] | – | 5.7 | 96 | 4.2
C=C(CC(=O)OC1CCCCCCC1)C(=O)OC(C(=O)O)C(F)(F)F (stereo not drawn) [Example 122, 2-((4-(cyclooctyloxy)-2-methylene-4-oxobutanoyl)oxy)-3,3,3-trifluoropropanoic acid] | – | 13 | 178 | 17.5
C=C(C(=O)OCC(=O)O)C(O)C(=O)OC1CCCCCCC1 (stereo not drawn) [Example 189, 2-((4-(cyclooctyloxy)-3-hydroxy-2-methylene-4-oxobutanoyl)oxy)acetic acid] | – | 57.9 | 137 | 18
C=C(CC(=O)OC1CC2(CCC2)C1)C(=O)OCc1nn[nH]n1 [Example 163, 1-(2H-tetrazol-5-yl)methyl 4-spiro[3.3]heptan-2-yl 2-methylenesuccinate] | – | 23.9 | 0 | > 100
C=C(CC(=O)OC1CCCOCC1)C(=O)O[C@H]1[C@@H]2CC[C@H]1CN(S(C)(=O)=O)C2 (stereo partly drawn) [Example 158, 1-((endo)-3-(methylsulfonyl)-3-azabicyclo[3.2.1]octan-8-yl) 4-(oxepan-4-yl) 2-methylenesuccinate] | – | 24.2 | 43 | 72.8
C=C(CC(=O)OC1CCCCCCC1)C(=O)OC(CC(=O)O)C(F)(F)F (stereo not drawn) [Example 144, 3-((4-(cyclooctyloxy)-2-methylene-4-oxobutanoyl)oxy)-4,4,4-trifluorobutanoic acid] | – | 1.7 | 176 | 2.1
C=C(CC(=O)OC(C)COCCCC)C(=O)O[C@H]1[C@@H]2CC[C@H]1CN(S(C)(=O)=O)C2 (stereo partly drawn) [Example 159, 4-(1-butoxypropan-2-yl) 1-((endo)-3-(methylsulfonyl)-3-azabicyclo[3.2.1]octan-8-yl) 2-methylenesuccinate] | – | 31.9 | 86 | 13.8
